One experiment concerns ACC PDX models. Nature of the experiment: ATRA comparison TGI studies in ACC PDX models. In kind it is in vivo. Conditions: ATRA 8 mg/kg to 32 mg/kg; tamibarotene 2 mg/kg. As to the method: The TGI studies in ACC PDX models were repeated in order to compare the original ATRA dose (3 or 4 mg/ml) against a more physiologically relevant dose of ATRA (8 mg/kg) and an alternative retinoid Tamibarotene (originally developed for ATRA-resistant cancer settings, approved in Japan and currently in development at Syros Pharmaceuticals).

The subject of experiment [1] is c-myb. Put plainly: qPCR of sorted c-myb:GFP zebrafish embryo cells. Conditions: sorted c-myb:GFP cells from 72 hpf embryos, 1 μM, 6 hours. It is filed as cell-based. The protocol: RA dose response experiments were plated similarly in LDF medium with the appropriate RA concentration. Sorted c-myb:GFP+ cells were collected from 72 hpf transgenic embryos that were homogenized: embryos were finely chopped and dissociated using Liberase (Roche), cell suspensions were filtered, and 58,000 GFP+ live cells were collected using a FACS Aria cell sorter (BD Biosciences). Cells were cultured for 6 hours in LDF medium, and then collected for qPCR.
(§1) Quantitative PCR: Total RNA from cells was extracted using Qiagen RNeasy Mini Kit, and random primed cDNA was generated (Invitrogen, SuperScript III First-Strand Synthesis System). The SsoFast EvaGreen (Biorad) method was used to quantify cDNAs of interest, which are represented as the fold change in transcript level. The amount of cDNA starting material for each sample was normalized in relation to species-specific β-actin expression for zebrafish samples, and both gapdh and β-actin expression for human samples. The primer sequences used were zebrafish myb: forward, 5′-[…]-3′ (SEQ ID No:1), reverse, 5′-[…]-3′ (SEQ ID No:2); zebrafish β-actin: forward, 5′-[…]-3′ (SEQ ID No:3), reverse, 5′-[…]-3′ (SEQ ID No:4); human myb: forward, 5′-[…]-3′ (SEQ ID No:5), reverse, 5′-[…]-3′ (SEQ ID No:6); human gapdh: forward, 5′-[…]-3′ (SEQ ID No:7), reverse, 5′-[…]-3′ (SEQ ID No:8); human β-actin: forward, 5′-[…]-3′ (SEQ ID No:9), reverse, 5′-[…]-3′ (SEQ ID No:10).
Zebrafish quantitative PCR analysis: Stage-matched 72 hpf c-myb:GFP transgenic embryos were finely chopped and dissociated using Liberase (Roche). GFP+ cells were collected using a FACS Aria cell sorter (BD Biosciences). Sorted cells were resuspended in zebrafish blastomere media and plated with 1 μM retinoic acid agonists for 6 hours. Cells were then collected and RNA was isolated using the RNeasy Micro Plus Kit (Qiagen) as per the manufacturer's instructions. cDNA was synthesized using the SuperScript III Kit (Life Technologies). Quantitative PCR was performed in triplicate on a BioRad iQ5 real-time PCR machine using Ssofast EvaGreen Supermix (BioRad). Samples were normalized to β-actin gene. Zebrafish primers used (forward and reverse respectively): actin, 5′-[…]-3′ (SEQ ID No:3) and 5′-[…] -3′ (SEQ ID No:4); c-myb, 5′-[…]-3′ (SEQ ID No:1) and 5′-[…]-3′ (SEQ ID No:2); mpx, 5′-[…]-3′ (SEQ ID No:11) and 5′-[…]-3′ (SEQ ID No:12); GFP, 5′-[…]-3′ (SEQ ID No:13) and 5′-[…]-3′ (SEQ ID No:14).

Another experiment has as its system c-myb:GFP. Nature of the experiment: c-myb:GFP zebrafish blastomere embryo culture chemical screen. In kind it is cell-based. The settings on record: approximately 30 μM, 2 days. The protocol:
The inventors have developed an embryo culture system in which embryos bearing a c-myb:GFP transgenic reporter were dissociated during sphere stage at 4 hours post fertilization (hpf), and cultured in gelatin-coated 384 well plates with chemicals for 2 days until imaging for fluorescent reporter activity (FIG. 1). This fluorescent transgene is expressed in a similar pattern to the endogenous gene. […] This transgene responds to inducers of hematopoiesis, as myb is a marker of hematopoietic stem cells (HSCs).
The image analysis software (ImageJ and MatLab) was used to identify hits that downregulate c-myb:GFP zebrafish embryo cultures by a z-score less than […] and more than 70% downregulation. Hits were assessed by eye and scored for morphology. Toxic compounds that caused poor embryoid body (EB) formation were assessed a 4.
Zebrafish cell culture: Zebrafish embryo cultures were adapted from Xu (2013). Dissociated blastomere cells were grown in medium composed of 85% LDF medium, 5% heat inactivated FBS, and 10% zebrafish day 1 embryo extract. LDF medium contains 50% Leibowitz's L-15 (Invitrogen), 20% DMEM (Invitrogen), and 30% DMEM/F-12 (Invitrogen), supplemented with 0.018% sodium bicarbonate, 15 mM HEPES (Invitrogen), 1% L-Glutamine (Invitrogen), 10 nM sodium selenite (Sigma-Aldrich), 1% N2 (Invitrogen), 2% B27 (Invitrogen), 1% Penicillin-Streptomycin (Invitrogen), and 0.2% Primocin (InvivoGen).
Screening procedures: Two 384-well plates were coated with 0.1% gelatin for each chemical library plate. Males of the c-myb:GFP transgenic line were set up overnight with casper females and kept separated until morning when they were mixed for mating. Embryos were washed twice with E3 embryo water and treated with pronase to remove chorions. Dechorionated embryos were washed with E3 embryo water and collected into tubes containing media. Embryos were disassociated by shaking ˜10 times and were filtered through a 40 μm nylon mesh filter. Resulting single cells were diluted with medium and aliquoted 30 μl per well into the 384-well plates at approximately 2 embryo equivalents per well. Chemicals were dispensed immediately afterwards with an Agilent Bravo robot. Chemicals from the libraries were diluted 300 times with LDF medium and were aliquoted 10 μl per well for a final concentration of approximately 33 μM. […] Cells were cultured in a 28° C. incubator with 5% CO2. Two days later, cells were imaged by a Yokogawa Cell Voyager 7000 imager. Images were analyzed by ImageJ and MatLab and confirmed by eye. […]
Culture of dissociated blastomere cells: Stage-matched zebrafish blastomeres were dissociated at 4 hpf and grown in medium composed of 85% LDF medium, 5% FBS, and 10% embryo extract. LDF medium contains 50% Leibowitz's L-15 (Invitrogen), 20% DMEM (Invitrogen), and 30% DMEM/F-12 (Invitrogen), supplemented with 2% B27 (Gibco), 15 mM HEPES (Gibco), 1% L-glutamine (Gibco), 1% N2 (Gibco), 10 nM sodium selenite (Sigma), 100 ug/mL piperacillin (Sigma), 10 ug/mL ciprofloxacin (GenHunter), and 0.018% sodium bicarbonate (Gibco). Embryo extract was made by homogenizing 24 hpf wildtype AB embryos in HBSS (Gibco).

Experiment [2] relates to c-myb. Put plainly: U937 time course qPCR of c-myb. In kind it is cell-based, human. Conditions: 1 μM; 6, 24 and 48 hours. The protocol: Cell culture: U937 cells were grown in RPMI 1640 (Life Technologies), 10% heat inactivated FBS, and 1% Penicillin-Streptomycin (Invitrogen). CellTiter-Glo Luminescent Cell Viability Assay (Promega) was performed as per manufacturer's instructions. Cell viability was assessed at day 2.
as §1
U937 time course quantitative PCR analysis: U937 cells were plated with 1 μM retinoic acid agonists for the duration indicated. Cells were then collected and RNA was isolated using the RNeasy Plus Mini Kit (Qiagen) as per the manufacturer's instructions. Further processing was done as described in the section above. Samples were normalized to β-actin gene. Human primers used (forward and reverse respectively): actin, 5′-[…]-3′ (SEQ ID No:9) and 5′-[…]-3′ (SEQ ID No:10); c-myb, 5′-[…]-3′ (SEQ ID No:5) and 5′-[…]-3′ (SEQ ID No:6).

Where [3] appears, read: Table 3, GFP signal in blastomere embryo culture screen.

The structures appear in SMILES notation.

These results are taken from patent publication US10668039B2, “Methods for treatment of adenoid cystic carcinoma” (THE CHILDREN'S MEDICAL CENTER CORPORATION, priority 2016, dated 2020).

On to `CC1(C)CCC(C)(C)c2cc(NC(=O)c3ccc(C(=O)O)cc3)ccc21` [tamibarotene, 4-[(1,1,4,4-tetramethyltetralin-6-yl)carbamoyl]benzoic acid], for which the “tumor growth inhibition in the PDX studies” value in the experiment on ACC PDX models is “showed tumor growth inhibition”.
For the compound `CC1=C(/C=C/C(C)=C\C=C\C(C)=C\C(=O)O)C(C)(C)CCC1` [9-cis retinoic acid], in the experiment on c-myb [1], the “endogenous myb levels by qPCR” value is recorded as “significantly downregulate”. Besides, the “Fold Change” value with c-myb:GFP (Table 2, c-myb:GFP embryo cultures) is −0.9153; in the experiment with c-myb:GFP (setting [3]), −0.9153. Besides, the Z-Score was −1.566 in the experiment on c-myb:GFP (Table 2, c-myb:GFP embryo cultures, average across two plates) and −1.566 in the experiment on c-myb:GFP (setting [3]). The “myb levels in U937 by qPCR” value with c-myb [2] is reported as “significantly downregulate”.
